In brackets after ≈: the same amount, converted by molar mass. Several values for one entry are separate records, joined by “and”; a condition that tells them apart may be missing. Equal values may be shown once.

In one assay the test system is Staphylococcus aureus. The assay can be described thus: Minimum bactericidal concentration against Staphylococcus aureus CCUG 1800T. Format: functional.
Usually MBC stands for the lowest tested concentration that kills the bacteria rather than only halting them. A higher MBC goes with less potent killing. For the compound `Cc1c(OCC(C)C)ccnc1CNc1nc2ccccc2[nH]1`, the MBC came out at 64 µg/mL (≈ 206 µM).

The next assay relates to Helicobacter pylori. Briefly: (§1) Minimum bactericidal concentration against Helicobacter pylori ATCC 43504. Format: functional.
Consider `Cc1c(CSc2nc3ccccc3o2)cccc1OCC(C)C`, for which the MBC is 64 µg/mL and 195 µM.
Take `Cc1c(CCc2nc3ccccc3s2)cccc1OCC(C)C`: the MBC was 32 µg/mL and 98 µM.
As to `Cc1c(OCC(C)C)ccnc1COc1nc2ccccc2o1`, the MBC was 16 µg/mL and 51 µM.
Take `COCCOCCOCCSc1cccc(CSc2nc3ccccc3[nH]2)c1C`: the MBC was 0.5 µg/mL and 1.16 µM.
Turning to `Cc1c(CSc2nc3ccccc3s2)cccc1OCC(C)C`, the MBC is > 128 µg/mL and > 373 µM.
For the compound `COCCOCCOCCOCCOCCSc1cccc(CSc2nc3ccccc3[nH]2)c1C`, the MBC was 0.5 µg/mL and 0.96 µM.
Turning to `Cc1c(OCC(C)C)ccnc1CCc1nc2ccccc2o1`, the MBC was 32 µg/mL and 103 µM.
With `Cc1c(OCC(C)C)ccnc1CNc1nc2ccccc2s1`, the MBC was 32 µg/mL and 98 µM.
Take `COCCOCCOCCOCCOCCOc1cccc(CSc2nc3ccccc3[nH]2)c1C`: the MBC was 2 µg/mL and 3.96 µM.
On to `COCCOCCOCCOc1cccc(CSc2nc3ccccc3[nH]2)c1C`, for which the MBC was 4 µg/mL and 9.6 µM.
For `CCC(=O)c1ccc2[nH]c(SCc3cccc(SCCOCCOCCOCCOCCOC)c3C)nc2c1`, the MBC was 2 µg/mL and 3.47 µM.
`Cc1c(CNc2nc3ccccc3[nH]2)cccc1OCC(C)C`: the MBC is 2 µg/mL and 6.5 µM.
With `Cc1c(CNc2nc3ccccc3[nH]2)cccc1SCCN1CCOCC1`, the MBC is 32 µg/mL and 107 µM.
Take `Cc1c(CSc2nc3ccccc3[nH]2)cccc1SCC(C)C`: the MBC was 4 µg/mL and 8.76 µM.
Turning to `Cc1c(CSc2nc3ccccc3[nH]2)cccc1SCCn1c([N+](=O)[O-])cnc1C`, the MBC is 2 µg/mL and 4.55 µM.
Regarding `Cc1c(CCc2nc3ccccc3[nH]2)cccc1OCC(C)C`, the MBC was 8 µg/mL and 26 µM.
`Cc1c(OCC(C)C)ccnc1CSc1nc2ccccc2o1`: the MBC is 32 µg/mL and 81 µM.
Still for that read-out and setting: the result for `Cc1c(CSc2nc3ccccc3[nH]2)cccc1OCC(C)C` reads 8 µg/mL and 19 µM; that for `Cc1c(OCC(C)C)ccnc1CCc1nc2ccccc2[nH]1`, 32 µg/mL and 103 µM; that for `Cc1c(OCC(C)C)ccnc1CCc1cc2ccccc2o1`, 16 µg/mL and 52 µM.
On the same count and under the same terms, with `Cc1c(CCc2cc3ccccc3o2)cccc1OCC(C)C` the figure was 128 µg/mL and 415 µM; with `COCCOCCOCCSc1cccc(CNc2nc3ccccc3[nH]2)c1C`, 77 µM.
Regarding `Cc1c(OCC(C)C)ccnc1CNc1nc2ccccc2[nH]1`, the MBC amounted to 8 µg/mL.
Consider `COCCOCCOCCOCCOCCSc1cccc(CSc2nc3cc(CO)ccc3[nH]2)c1C`, for which the MBC is 8 µg/mL and 15 µM.
On to `Cc1c(OCC(C)C)ccnc1CNc1nc2ccccc2o1`, for which the MBC is 32 µg/mL and 103 µM.
Same read-out and setting: with `Cc1c(OCC(C)C)ccnc1CSc1cc2ccccc2[nH]1` the figure was 4 µg/mL and 12 µM; with `Cc1c(CSc2nc3ccccc3[nH]2)cccc1SCCn1cncn1`, 4 µg/mL and 10.5 µM; with `Cc1c(CCc2cc3ccccc3[nH]2)cccc1OCC(C)C`, 16 µg/mL and 52 µM.
Consider `Cc1c(COc2nc3ccccc3o2)cccc1OCC(C)C`, for which the MBC is 32 µg/mL and 103 µM.
On the same count and under the same terms, with `COCCOCCOCCSc1cccc(CNc2nc3ccccc3s2)c1C` the figure was 4 µg/mL and 9.25 µM.
With `Cc1c(OCC(C)C)ccnc1CSc1nc2ccccc2[nH]1`, the MBC is 1 µg/mL and 3 µM.
Consider `Cc1c(CSc2cc3ccccc3[nH]2)cccc1OCC(C)C`, for which the MBC was 32 µg/mL and 98 µM.
`Cc1c(CSc2nc3ccccc3[nH]2)cccc1SCCN1CCOCC1`: the MBC was 1 µg/mL and 2.5 µM.
Turning to `Cc1c(CSc2nc3ccccc3[nH]2)cccc1OCCN1CCOCC1`, the MBC is 16 µg/mL and 42 µM.
Regarding `Cc1c(OCC(C)C)ccnc1COc1nc2ccccc2s1`, the MBC is 16 µg/mL and 49 µM.
Consider `CCOC(=O)c1ccc2[nH]c(SCc3cccc(SCCOCCOCCOCCOCCOC)c3C)nc2c1`, for which the MBC is 2 µg/mL and 3.37 µM.
Regarding `Cc1c(OCC(C)C)ccnc1CCc1nc2ccccc2s1`, the MBC was 16 µg/mL and 49 µM.
Still for that read-out and setting: with `Cc1c(OCC(C)C)ccnc1CSc1nc2ccccc2s1` the figure was 32 µg/mL and 93 µM; with `Cc1c(CNc2nc3ccccc3s2)cccc1OCC(C)C`, > 128 µg/mL and > 392 µM.
The same measure, in the same setting: the result for `COCCOCCOCCOCCOCCSc1cccc(CSc2nc3cc(N)ccc3[nH]2)c1C` reads 8 µg/mL and 15 µM; that for `Cc1c(CCc2nc3ccccc3o2)cccc1OCC(C)C`, 16 µg/mL and 52 µM; that for `Cc1c(CNc2nc3ccccc3o2)cccc1OCC(C)C`, > 128 µg/mL and > 412 µM.
Turning to `Cc1c(COc2nc3ccccc3s2)cccc1OCC(C)C`, the MBC is 128 µg/mL and 391 µM.
For `CC1(C)S[C@@H]2[C@H](NC(=O)[C@H](N)c3ccc(O)cc3)C(=O)N2[C@H]1C(=O)O` [AMOXICILLIN], the MBC stood at 0.05 µg/mL.
Still for that read-out and setting: the result for `CC[C@H]1OC(=O)[C@H](C)[C@@H](O[C@H]2C[C@@](C)(OC)[C@@H](O)[C@H](C)O2)[C@H](C)[C@@H](O[C@@H]2O[C@H](C)C[C@H](N(C)C)[C@H]2O)[C@](C)(OC)C[C@@H](C)C(=O)[C@H](C)[C@@H](O)[C@]1(C)O` [CLARITHROMYCIN] reads 0.1 µg/mL.

For a further assay, the system named is Escherichia coli. Briefly: Minimum bactericidal concentration against Escherichia coli K-12. Format: functional.
The compound `Cc1c(OCC(C)C)ccnc1CNc1nc2ccccc2[nH]1` had an MBC of 206 µM (≈ 63.9 µg/mL).

The subject of a further assay is Helicobacter pylori. Briefly: Minimum bactericidal concentration against Helicobacter pylori ATCC 43504; range 2-4 ug/mL. Format: functional.
Compound `Cc1ncc([N+](=O)[O-])n1CCO` [METRONIDAZOLE] yielded an MBC of 2 µg/mL (≈ 11.7 µM).

For another assay, the system named is Helicobacter pylori. Described as §1. Format: functional.
`COCCOCCOCCSc1cccc(CNc2nc3ccccc3[nH]2)c1C` gave an MBC of 32 µg/mL (≈ 77 µM).

For the next assay, the system named is Helicobacter pylori. Described as §1. Format: functional. This is another data set of the same source.
`Cc1c(OCC(C)C)ccnc1CNc1nc2ccccc2[nH]1` gave an MBC of 26 µM (≈ 8.07 µg/mL).

Values taken from ChEMBL document CHEMBL1135788, “Novel structures derived from 2-[[(2-pyridyl)methyl]thio]-1H-benzimidazole as anti-Helicobacter pylori agents, Part 1” (2002).
